The source of these data is patent US20200033346A1, “DIAGNOSTIC AND THERAPEUTIC METHODS FOR KRAS POSITIVE CANCERS” (The Board of Trustees of the Leland Stanford Junior …, priority 2017, published 2020).

The target of experiment [1] is FASN (Homo sapiens, UniProt P49327). To be noted: background description; cited from earlier work.
In experiment [2] the test system is H1299. In words: Cell proliferation upon FASN inhibition (PI assay, hemocytometer cell counting), H1299. In kind it is cell-based, human. The note with it: cerulenin 1-10 μg/mL, FIG. 6B. The source says: (§1) Cell culture. The human non-small cell lung carcinoma cell lines, A549 and H1299, were used for in vitro experiments. A549 cells were maintained in Dulbecco's Modified Eagle Medium (DMEM) supplemented with 10% fetal bovine serum (FBS), 1% L-glutamine, 1% sodium pyruvate, 1% nonessential amino acids, and Antibiotic-Antimycotic. […] Trypsin-EDTA was used to passage both A549 and H1299 cells. All cell culture reagents were purchased from Gibco® (Thermo Fisher Scientific Inc.).
(§2) Small molecule inhibitors. […] FTS is a synthetic famesylcysteine mimetic which interferes with the anchoring of KRAS to the plasma membrane. […] Various levels of these drugs were administered to cells in culture over a time course in order to assess dose-response relationships.
(§3) Cell counting. A volume of cells was removed from culture medium and mixed with an equal volume of 0.4% Trypan blue stain. Then 10 μL was taken out and placed into a hemocytometer for cell counting. Viable cell counts were used as a measure of cell proliferation.

Experiment [3] deals with A549. Briefly: Cell proliferation upon FASN inhibition (PI assay, hemocytometer cell counting), A549. In kind it is cell-based, human. To be noted: cerulenin 1-10 μg/mL, FIG. 6A.
From the text: as §1, §2, §3

Experiment [4] concerns ERK1/2 phosphorylation. Briefly: NIA analysis of ERK isoforms in FNAs from transgenic lymphoma. It is filed as in vivo, mouse. To be noted: Day 4 of FTS treatment, FIG. 22. The method, then:
(§4) Nanoimmunoassay (NIA). NIA was performed using the Nanopro 1000 (Protein Simple) to detect the phosphorylation states of ERK1 and ERK2 in lysates generated from lung tumor tissue. NIA is a highly sensitive capillary-based isoelectric focusing method that uses antibody detection to quantify protein isoforms as well as characterize post-translational protein modifications such as phosphorylation. The final protein concentration loaded into each capillary of the Nanopro 1000 was 0.1 μg/μL. The primary rabbit antibody for ERK1/2 (Millipore) was diluted 1:300 and the primary mouse antibody for the loading control, Hsp70 (Santa Cruz Biosciences), was diluted 1:500. The anti-mouse and anti-rabbit secondary antibodies, conjugated to horse radish peroxidase, were diluted 1:100. Chemiluminescence signal was recorded following the addition of luminol and peroxide detection reagents. Analysis of NIA data was performed in Compass software (Protein Simple).
Tumors were sampled by fine needle aspirate prior to treatment (UnTx), and […] after 1-8 days of treatment with FTS.
Comparison with dox is shown. Mice were either treated with FTS (BC2FTS) or BCL2 inactivation (BCL2Dox). Tumors were sampled by fine needle aspirate prior to treatment (UnTx), and […] after 1-8 days of treatment with FTS.

Experiment [5] has as its system FASN and SCD gene expression. Briefly: Real-time PCR of FASN and SCD mRNA in human lung cancer cell lines after inhibitor treatment. It is filed as cell-based. The note with it: qPCR. The method, then: Cell culture. The human non-small cell lung carcinoma cell lines, A549 and H1299, were used for in vitro experiments. A549 cells were maintained in Dulbecco's Modified Eagle Medium (DMEM) supplemented with 10% fetal bovine serum (FBS), 1% L-glutamine, 1% sodium pyruvate, 1% nonessential amino acids, and Antibiotic-Antimycotic. H1299 cells were maintained in RPMI 1640 medium supplemented with 10% FBS, 50 μM β-mercaptoethanol, and Antibiotic-Antimycotic. Trypsin-EDTA was used to passage both A549 and H1299 cells. All cell culture reagents were purchased from Gibco® (Thermo Fisher Scientific Inc.). Small molecule inhibitors. […] FTS is a synthetic famesylcysteine mimetic which interferes with the anchoring of KRAS to the plasma membrane. […] Various levels of these drugs were administered to cells in culture over a time course in order to assess dose-response relationships. RNA extraction and cDNA synthesis. Total RNA was isolated from cells and lung tissue using the QIAGEN RNeasy Mini kit. RNA quality and concentration were assessed by the NanoDrop® spectrophotometer. The RNA was reverse transcribed into cDNA using the SuperScript® III First-Strand Synthesis System (Invitrogen). […] Amplicons were detected by using SYBR® Green I dye as fluorophore. […] For each gene, a threshold cycle (Ct) number, which represents the number of cycles required to reach the threshold fluorescence, was determined. […]

Experiment [6] concerns BCL2-induced lymphoma. In words: Tumor growth in mice with BCL2-induced lymphoma. It is filed as in vivo, mouse. To be noted: RAS inactivation by FTS together with BCL2 inactivation by DOX; FIG. 21. The source says: Inactivation of both BCL2 and Ras inhibits tumor growth more effectively than either oncogene alone: mice with BCL2-induced lymphoma. Plots of tumor area over time in mice cohorts: untreated (UnTx), with BCL2 inactivated (BCL2 off), Ras inactivated (Ras off, or both BCL2 and Ras inactivated (BCL2off,Ras off).

In experiment [7] the test system is ERK1/2 phospho-isoforms. Briefly: NIA analysis of ERK isoforms in tumor FNAs of mice with MYC-induced lymphoma. It is filed as in vivo, mouse. The note with it: FIG. 18. The protocol:
as §4
Mice with MYC-induced lymphoma were treated with FTS. Tumors from mouse untreated or after 4 days of treatment were sampled by fine needle aspirate. FNAs were flash frozen and batch analyzed. NIA was used to analyze ERK isoforms using NIA.

The subject of experiment [8] is Erk pathway. In words: NIA of ERK isoforms in head and neck squamous cell carcinoma before and after rigosertib. In kind it is in vivo, human. To be noted: one head and neck cancer patient; pre- vs post-treatment; FIG. 32. The protocol: Patients receive 2 cycles of 2 weeks of treatment with 1 week off regimen. For Cycle 1, Day 14 only, 5 patients with HNSCC will undergo biopsy or FNA for nano-proteomic profiling of total- and phospho-proteins in pathways inhibited by rigosertib, ERK and loading control. For Cycle 1 Day 14 and Cycle 2 Day 14, pharmacokinetic blood analyses are performed. […] A patient with head and neck cancer treated on clinical trial of rigosertib had tumor sampled before (pre-treatment) and after (post-treatment) treatment. NIA was used to measure ERK isforms.

In experiment [9] the test system is tumor burden. In words: Tumor burden in patients on clinical trial of atorvastatin. To be noted: eight days of treatment. It is filed as in vivo, human.
The subject of experiment [10] is MEK1 phospho-isoforms. Briefly: NIA of MEK isoforms in NHL patients before and after atorvastatin. It is filed as in vivo, human. The protocol: Nine patients were treated on clinical trial of HMG co-A reductase inhibitor atorvastatin. NIA was used to measure changes in MEK isoforms before (day 1) and after eight days of treatment.
Nine patients were treated on clinical trial of HMG co-A reductase inhibitor atorvastatin. NIA was used to measure changes in MEK isoforms before (day 1) and after 8 days of treatment.

Chain of FASN (P49327 whole entry, species assumed): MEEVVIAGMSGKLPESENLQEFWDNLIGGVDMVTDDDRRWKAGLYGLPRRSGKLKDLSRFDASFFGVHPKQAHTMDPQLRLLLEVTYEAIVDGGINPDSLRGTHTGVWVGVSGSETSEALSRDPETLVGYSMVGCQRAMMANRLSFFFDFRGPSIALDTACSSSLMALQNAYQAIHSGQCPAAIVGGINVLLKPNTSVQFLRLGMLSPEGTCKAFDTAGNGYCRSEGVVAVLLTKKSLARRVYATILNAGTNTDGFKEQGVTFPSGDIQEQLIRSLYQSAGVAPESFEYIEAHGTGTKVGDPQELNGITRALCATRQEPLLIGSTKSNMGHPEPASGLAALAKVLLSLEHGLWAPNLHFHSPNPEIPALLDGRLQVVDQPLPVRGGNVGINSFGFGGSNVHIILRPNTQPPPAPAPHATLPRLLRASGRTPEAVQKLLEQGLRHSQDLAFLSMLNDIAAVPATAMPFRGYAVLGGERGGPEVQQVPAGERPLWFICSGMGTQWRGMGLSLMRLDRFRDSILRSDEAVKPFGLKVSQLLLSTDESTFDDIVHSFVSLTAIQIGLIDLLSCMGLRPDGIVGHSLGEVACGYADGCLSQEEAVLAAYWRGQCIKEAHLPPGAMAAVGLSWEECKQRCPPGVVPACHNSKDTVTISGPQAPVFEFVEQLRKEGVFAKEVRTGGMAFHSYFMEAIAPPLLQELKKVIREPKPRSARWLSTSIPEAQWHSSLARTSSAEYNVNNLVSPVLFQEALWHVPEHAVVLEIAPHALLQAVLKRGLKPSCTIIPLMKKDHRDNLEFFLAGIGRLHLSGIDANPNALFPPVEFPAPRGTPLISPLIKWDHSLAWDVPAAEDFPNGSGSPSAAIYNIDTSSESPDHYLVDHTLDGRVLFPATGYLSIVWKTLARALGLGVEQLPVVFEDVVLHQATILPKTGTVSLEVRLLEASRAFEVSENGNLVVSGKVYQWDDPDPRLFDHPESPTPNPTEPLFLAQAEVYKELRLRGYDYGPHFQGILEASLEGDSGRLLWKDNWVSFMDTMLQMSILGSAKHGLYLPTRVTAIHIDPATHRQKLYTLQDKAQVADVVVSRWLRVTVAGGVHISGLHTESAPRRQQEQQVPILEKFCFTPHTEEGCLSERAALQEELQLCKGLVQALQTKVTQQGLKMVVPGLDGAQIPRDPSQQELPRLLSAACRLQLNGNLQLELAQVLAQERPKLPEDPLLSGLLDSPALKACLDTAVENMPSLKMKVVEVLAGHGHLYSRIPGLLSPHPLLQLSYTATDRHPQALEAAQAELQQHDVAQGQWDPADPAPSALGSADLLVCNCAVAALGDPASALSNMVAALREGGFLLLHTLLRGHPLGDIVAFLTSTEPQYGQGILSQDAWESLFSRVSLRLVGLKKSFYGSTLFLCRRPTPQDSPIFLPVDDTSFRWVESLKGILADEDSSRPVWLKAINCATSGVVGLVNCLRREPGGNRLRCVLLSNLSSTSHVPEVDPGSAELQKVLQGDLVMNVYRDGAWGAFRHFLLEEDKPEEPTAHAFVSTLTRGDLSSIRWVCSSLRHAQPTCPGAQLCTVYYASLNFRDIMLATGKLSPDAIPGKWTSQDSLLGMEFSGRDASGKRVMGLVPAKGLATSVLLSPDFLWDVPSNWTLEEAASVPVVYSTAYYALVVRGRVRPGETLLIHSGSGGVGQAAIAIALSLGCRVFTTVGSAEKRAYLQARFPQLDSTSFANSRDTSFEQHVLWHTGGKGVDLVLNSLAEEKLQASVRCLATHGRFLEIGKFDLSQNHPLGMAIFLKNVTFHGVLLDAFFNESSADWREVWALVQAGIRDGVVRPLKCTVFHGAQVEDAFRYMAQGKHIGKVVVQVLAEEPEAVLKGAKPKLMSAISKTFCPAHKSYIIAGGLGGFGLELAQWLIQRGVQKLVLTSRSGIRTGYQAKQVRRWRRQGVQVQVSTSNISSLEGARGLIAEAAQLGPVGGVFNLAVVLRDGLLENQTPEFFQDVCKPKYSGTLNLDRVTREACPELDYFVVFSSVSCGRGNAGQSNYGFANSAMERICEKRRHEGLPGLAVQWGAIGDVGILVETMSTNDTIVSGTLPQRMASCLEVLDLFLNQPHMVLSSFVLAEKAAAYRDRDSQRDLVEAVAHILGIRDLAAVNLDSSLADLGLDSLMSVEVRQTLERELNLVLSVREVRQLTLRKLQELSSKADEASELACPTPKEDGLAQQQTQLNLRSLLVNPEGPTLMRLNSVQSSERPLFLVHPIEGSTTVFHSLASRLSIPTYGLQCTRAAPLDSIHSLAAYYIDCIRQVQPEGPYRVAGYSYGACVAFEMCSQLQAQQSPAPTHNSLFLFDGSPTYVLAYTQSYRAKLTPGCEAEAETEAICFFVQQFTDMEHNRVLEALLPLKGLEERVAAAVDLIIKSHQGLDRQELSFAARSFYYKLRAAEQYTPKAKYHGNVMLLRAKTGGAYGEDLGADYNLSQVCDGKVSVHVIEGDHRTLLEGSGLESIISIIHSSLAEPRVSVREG

Turning to `C=C1C(=O)OC(CCCCCCCC)C1C(=O)O` (centres unmarked) [C75], the FASN inhibitory potency entry in [1] is reported as “weak, irreversible inhibitor”.

With `C/C=C/C/C=C/CCC(=O)[C@H]1O[C@H]1C(N)=O` [Cerulenin], the Cell proliferation result in [2] and in [3] was “decreased proliferation” each time.

`CC(C)=CCC/C(C)=C/CC/C(C)=C/CSc1ccccc1C(=O)O` [FTS, S-trans,trans-farnesylthiosalicylic acid]: the “Decrease of ERK1/2 phosphorylation” value in experiment [4] was found to be 35%. Besides, in experiment [5] (human lung cancer cell line, FTS at 5-20 ng/mL, FIG. 5B), the “Gene expression of FASN and SCD upon KRAS inhibition” value was “decreased the gene expression of FASN and SCD in a dose-dependent manner”. Moreover, in experiment [6], the Tumor growth inhibition result is “inhibits tumor growth more effectively than inactivating either oncogene alone”. Further, the “Total ERK1/2 level” value in [7] (FNA after 4 days of treatment) is listed as “did not change”. Besides, the Phospho-ERK isoforms entry in experiment [7] (FNA on day 4 of treatment) was “all phospho-ERK isoforms decreased”.

In the case of `Cc1ccnc(NS(=O)(=O)c2ccc(NC(=O)Nc3ccc(S(=O)(=O)Nc4nccc(C)n4)cc3)cc2)n1` [GSK837149A], in experiment [1], the FASN inhibitory potency result was “low, nanomolar”.

As to `COc1cc(OC)c(/C=C/S(=O)(=O)Cc2ccc(OC)c(NCC(=O)O)c2)c(OC)c1` [Rigosertib], in experiment [8], the “Erk pathway activity (ERK isoforms by NIA)” value is listed as “decreases Erk pathway”.

For `O=C(Nc1ccc2[nH]nc(-c3ccncc3)c2c1)[C@@H]1CCN(CC(=O)N2CCN(c3ccc(-c4ncccn4)cc3)CC2)C1` [SCH772984], the “Relative mRNA expression of FASN and SCD upon ERK inhibition” value in experiment [5] (A549 and H1299 cells, SCH772984 at 125 ng/mL, FIG. 5A) is “suppression of FASN and SCD”.

Regarding `CC(C)c1c(C(=O)Nc2ccccc2)c(-c2ccccc2)c(-c2ccc(F)cc2)n1CC[C@@H](O)C[C@@H](O)CC(=O)O` [atorvastatin], the Tumor burden result is listed as “tumor burden decreased” in experiment [9] (patient A) and “no change in tumor burden” in experiment [9] (patient B). For the same compound, the “Patients with significant changes in di-phospho-MEK1” value in experiment [10] (day 1 vs after 8 days of treatment, FIG. 27) is recorded as “four of nine”. Also, the “Patients with significant changes in tri-phospho-MEK1” value in experiment [10] (day 1 vs after eight days of treatment, FIG. 26) was “four of nine”. Besides, the “Patients with significant changes in Mono-phospho-MEK1” value in experiment [10] (day 1 vs after eight days of treatment, FIG. 28) is listed as “one of nine”.

Consider epigallocatechin-3-gallate [EGCG], for which the FASN inhibitory potency entry in [1] is given as “high micromolar”.
